Experimental data from patent publication US20170166870A1, “HUMAN HEPATIC 3D CO-CULTURE MODEL AND USES THEREOF” (Vrije Universiteit Brussel, priority 2014, published 2017).
Where “and” joins values, the source holds several entries; their conditions need not be identical. Equal values may be shown once. Read-outs that look alike come from different tables or passages of the source.

Columns and labels:
[1] = tested on: hepatic stellate cells isolated from mice; test: Acute and chronic APAP liver injury model, HSC activation markers and collagen deposition; format: in vivo, mouse
Description: Male balbC and C57BL/6 mice were used for all experiments; animals were housed in a controlled environment with free access to chow and water. The experimental protocol was approved by the institutional Animal Care and Use Committee of Vrije Universiteit Brussel, permit number 14-212-2, and National Institutes of Health principles of laboratory animal care (NIH publication 86-23, revised 1995) were followed. Acute and chronic models for liver fibrosis were used on mice of age 7-8 weeks. Acute injury was induced by a single dose of Acetaminophen (APAP) of 50; 150; 300 or 500 mg APAP/kg weight. Chronic injury was induced by repeated injections of APAP twice per week for 4 weeks. Hepatic stellate cells were collected at the end of the treatment. Isolation of stellate cells was done using FACS, based on UV-positivity. After isolation cells were not cultured, but immediately used for mRNA analysis. […] For quantitative real-time polymerase chain reaction (qPCR), GoTaq QPCR Master Mix with BRYTE green (Promega, Madison, Wis.) was used, subjected to qPCR in a 7500 real time PCR system and analysed using System SDS software v2.0.5 (Applied Biosystems), using GAPDH for normalisation. Reliability of GAPDH as house-keeping gene was determined using Normfinder (Andersen et al., 2004; Cancer Res 64(15): 5245-5250) to produce the ΔCT values. […]

3D HepaRG mono-culture [2] = test: APAP toxicity assay, cell viability by ATP (Cell titer Glo); format: cell-based; conditions: Homo sapiens, 0% DMSO, read-out: APAP EC50 values (±stdev)
Protocol: (§1) APAP toxicity assay was performed in 3D HepaRG/co-culture as well as in 3D HepaRG monoculture. For 24 h, starting at day 20, cells were exposed to a range of APAP concentrations between 0.5 and 80 mM, keeping cells with the solvent (0.1% DMSO) as a control. For some experiments the culture medium was supplemented with 2.5 mM valproic acid (VPA sodium salt, Sigma-Aldrich) or with cytokine mixture (Raicevic et al.,2012)-interleukin (IL)-1β 25 ng/mL (Peprotech, Rocky Hill, N.J., USA), interferon (IFN)-γ 10^3 U/mL, tumor necrosis factor (TNF)-a 50 ng/mL, and IFN-α 3·10^3 U/mL (all from Prospec, Inc., East Brunswick, N.J., USA). For the recovery assay, at the end of APAP incubation, cells were washed using HepaRG culture 0% DMSO medium and kept in the same medium for 3 more days.
(§2) At the end of the incubation period, 5 spheroids per condition were pooled and lysed for RNA analyses, while the remaining spheroids per condition were lysed individually for viability analysis using the Cell titer Glo kit (Promega) for ATP measurements following the instructions of the manufacturer.

3D HepaRG/HSC co-culture = test: as above; format: cell-based, human; conditions: Homo sapiens, 3D HepaRG/HSC, current study, 0% DMSO, read-out: APAP EC50 values (±stdev)
Protocol: as §1, with “For 24 h, starting at day 20, cells were exposed to a range of APAP concentrations between 0.5 and 80 mM, keeping cells with the solvent (0.1% DMSO) as a control.” left out
as §2

3D HepaRG mono-culture [3] = test: mRNA expression of HSC activation markers (qPCR) after APAP incubation; format: cell-based, human; conditions: 20 mM APAP, 24h, Assays 1-3
Protocol: as §1, §2
Total RNA was extracted from cells using the ReliaPrep RNA Cell Miniprep System (Promega, Madison, Wis.). Reverse-transcription using the Revert Aid Kit (ThermoFisher Scientific, St. Leon-Rot, Germany) allowed conversion of RNA to cDNA. The RT reaction was performed at 25° C. for ten minutes followed by 30 minutes at 50° C. For quantitative real-time polymerase chain reaction (qPCR), GoTaq QPCR Master Mix with BRYTE green (Promega, Madison, Wis.) was used, subjected to qPCR in a 7500 real time PCR system and analysed using System SDS software v2.0.5 (Applied Biosystems), using GAPDH for normalisation.

3D HepaRG = conditions: read-out: APAP EC50 values (±stdev), cited from earlier work

CC(=O)Nc1ccc(O)cc1 [APAP, Acetaminophen]
activation marker gene expression in isolated HSC ([1]; acute and chronic exposure, doses equal or higher than 300 mg/kg weight): significantly increase of the activation marker gene expression
fibrosis profile at the protein level (collagen) ([1]; chronic exposure (4 weeks)): deposition of collagen around the portal area with septa formation
EC50 (3D HepaRG mono-culture [2]; 144 h, Day 6/7, current study): 11.6 mM
EC50 (3D HepaRG mono-culture [2]; 504 h, Day 21/22, current study): 11.6 ± 2.15 mM
EC50 (3D HepaRG/HSC co-culture; 144 h, Day 6/7): 10 ± 1.09 mM
EC50 (3D HepaRG/HSC co-culture; 504 h, Day 21/22): 8 ± 4.17 mM
Col1a1 mRNA fold increase (3D HepaRG mono-culture [3]): 4.80 +/− 4.83 fold and 3.01 +/− 0.06 fold
aSMA mRNA fold increase (3D HepaRG mono-culture [3]): 0.69 +/− 0.09 fold and 1.06 +/− 0.13 fold
EC50 (3D HepaRG; Day 6/7, Gunness et al. 2013, 2% DMSO): 2.7 ± 7.14 mM
EC50 (3D HepaRG; Day 21/22, Gunness et al. 2013, 2% DMSO): 10.1 ± 9.9 mM
